Results reported in patent US7807882B2, “Herbicide-resistant sunflower plants, polynucleotides encoding herbicide-resistant acetohydroxyacid synthase large subunit proteins, and methods of use” (priority 2004, dated 2010).

How the values were obtained:
Assay in all cases: Field trial, sulfonylurea tolerance (herbicide injury ratings), Balcarce
Assay type in all cases: in vivo, Helianthus annuus
MUT28 sunflower line = details: No injury = 0
Text: (§1) To evaluate the tolerance of MUT28 sunflower plants to sulfonylurea herbicides, HA89 (wild-type), MUT28, IMISUN-1, and SURES-1 sunflower lines were planted outdoors in Balcarce, Argentina during the growing season in an RCBD field trial with two replications to evaluate the tolerance of MUT28 plants to the sulfonylurea herbicide thifensulfuron (TFS) at 1× and 2× rates. The 1× rates for TFS is 4.4 g a.i./ha.

IMISUN-1 sunflower line = details: line IMISUN-1, No injury = 0
Text: as §1

[1] = test system: HA89 (wild-type) sunflower line; details: No injury = 0
Text: as §1

SURES-1 sunflower line = details: line SURES-1, No injury = 0
Text: as §1

COc1nc(C)nc(NC(=O)NS(=O)(=O)c2ccsc2C(=O)O)n1 [thifensulfuron]
Herbicide Injury Ratings (MUT28 sunflower line; rate 1× (4.4 g a.i./ha)): 30 | Herbicide Injury Ratings (MUT28 sunflower line; rate 2× (1× is 4.4 g a.i./ha)): 42 | Herbicide Injury Ratings (IMISUN-1 sunflower line; rate 1× (4.4 g a.i./ha)): 20 | Herbicide Injury Ratings (IMISUN-1 sunflower line; rate 2× (1× is 4.4 g a.i./ha)): 75 | Herbicide Injury Ratings ([1]; rate 1× (4.4 g a.i./ha)): 75 | Herbicide Injury Ratings ([1]; rate 2× (1× is 4.4 g a.i./ha)): 75 | Herbicide Injury Ratings (SURES-1 sunflower line; rate 1× (4.4 g a.i./ha)): 5 | Herbicide Injury Ratings (SURES-1 sunflower line; rate 2× (1× is 4.4 g a.i./ha)): 3
